Assay results published in PubChem BioAssay (NCI).
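96-well plates; 48 h exposure; 5 concentrations. Endpoints by linear interpolation between flanking doses. Not reached: highest tested concentration assigned. GI50 is the concentration that inhibits growth by half. The concentration for full growth arrest is given as TGI.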

What was measured:
Assay in all cases: growth of human tumour cells (NCI), 48 h
[1] = tested on: SK-OV-3 ovarian
[2] = tested on: MCF7 breast
[3] = tested on: MOLT-4 leukemia
[4] = tested on: U251 CNS
[5] = tested on: LXFL 529 NSCLC
[6] = tested on: MDA-MB-231 breast
[7] = tested on: UACC-62 melanoma
[8] = tested on: KM20L2 colon
[9] = tested on: UACC-257 melanoma
[10] = tested on: DMS 273 small cell lung
[11] = tested on: HL-60(TB) leukemia

Compound	TGI [1] [µM]	TGI [2] [µM]	TGI [3] [µM]	TGI [4] [µM]	TGI [5] [µM]	TGI [6] [µM]	TGI [7] [µM]	TGI [8] [µM]	TGI [9] [µM]	TGI [10] [µM]	TGI [11] [µM]	GI50 [1] [µM]	GI50 [2] [µM]	GI50 [3] [µM]	GI50 [4] [µM]	GI50 [6] [µM]	GI50 [7] [µM]	GI50 [9] [µM]	GI50 [11] [µM]
C=COC(=O)N[C@H]1CCc2cc(OC)c(OC)c(OC)c2-c2ccc(SC)c(=O)cc21	3.5	59.8	> 96.8	3.02	> 100	1.88	> 75	< 0.01	77.7	> 100	< 0.01								
CC(C)OC(=O)[C@H](C)NP(=O)(OC[C@H]1O[C@@H](n2ccc(=O)[nH]c2=O)[C@](C)(F)[C@@H]1O)Oc1ccccc1 (stereo partly specified)	> 100	> 100	> 100	> 100		> 100	> 100		> 100		> 100	> 100	> 100	> 100	> 100	> 100	> 100	> 100	> 100
O=C1c2cccc3cccc(c23)C(=O)N1CCCCCN1CCN(CCCCCOc2ccc(-c3nc4ccc(N5CCOCC5)cc4[nH]3)cc2)CC1	> 100	8	2.29	10.2		> 20.4	> 57.1		3.76		> 19.9	> 100	2.49	0.264	5.47	12.6	16.1	2.15	0.372
O=c1[nH]c2ccc(O)cc2o1	> 100	> 100	> 100	> 100		> 100	> 100		> 100		> 100								
CN(C)c1ccc(N=Nc2ccccn2)c(O)c1	> 28.3	> 100	> 87.8	> 100		> 100			9.04		1.46	0.42	0.271	0.243	0.258	0.446	0.369	1.24	0.228
CC12CCC3c4ccc(O)cc4CCC3C1C/C(=N\O)C2O (stereo unspecified)	> 100	> 100	> 100	> 100		> 100	> 100		> 100		> 100								
O=C(NNc1ccccc1)C(=O)NNc1ccccc1	> 100	> 100	> 100	> 100		> 100	> 100		> 100		5.28	> 100	5.67	1.6	> 100	24.1	0.43	> 100	0.627
BrCc1cccc(C[P+](c2ccccc2)(c2ccccc2)c2ccccc2)c1	> 100	> 100	> 100	> 100		> 100	> 100		> 100		49.9	70.1	13.4	65	6.86	33	7.97	5.49	13.9
